The target in assay [1] is T1, PIM-1 (Homo sapiens, UniProt P11309).
T1 construct: made in house
Briefly: Protein PIM kinase assay (ADP Hunter Plus). In kind it is biochemical. Particulars: 100 μM ATP, 100 μM PIMtide. The procedure: (§1) PIM kinase activities were measured by using the commercial ADP Hunter™ Plus assay (DiscoveRx Ref. #33-016), a homogeneous assay measuring ADP accumulation, as a universal product of kinase activity. PIM-1 and PIM-2 proteins were obtained by purification as it is described by Martinez-Gonzalez et. al. Eur. J. Med Chem. 2019, 168, 87-109 and PIM-3 was acquired from Millipore (Cat #14-738). The assay was done following general manufacturer recommendations and adapting protein and substrates concentrations to optimal conditions. Kinase buffer was 15 mM HEPES, pH 7.4, 20 mM NaCl, 1 mM EGTA, 0.02% Tween-20, 10 mM MgCl2 and 0.1 mg/mL LBGG (bovine y-globulin). All PIM kinases assays were done at 100 μM PIM tide (ARKRRRHPSGPPTA), as peptide substrate, and 100 μM ATP. Protein concentration was 50, 350 and 200 pg/μl for PIM-1, 2 and 3, respectively. In order to calculate the IC50 of described compounds, serial 1:3 dilutions were prepared and the reaction started by addition of ATP. Incubation was done for 1 h at 25° C. Reagents A and B (DiscoveRx) were sequentially added to the wells and plates were incubated for 30 min at 37° C. Fluorescence counts were read in a Victor instrument (Perkin Elmer) with the recommended settings (544 and 580 nm as excitation and emission wavelengths, respectively). Values were plot against inhibitor concentration and fit to a sigmoid dose-response curve using Activity Base software from IDBS.

Assay [2] addresses T2, PIM-2 (Homo sapiens, UniProt Q9P1W9).
T2 construct: made in house
Briefly: Protein PIM kinase assay (ADP Hunter Plus). In kind it is biochemical. Conditions: 100 μM ATP, 100 μM PIMtide. As to the method: as §1

Assay [3] has as its target T3, PIM-3 (Homo sapiens, UniProt Q86V86).
T3 construct: purchased Millipore 14-738
Briefly: Protein PIM kinase assay (ADP Hunter Plus). Type of assay: biochemical. Particulars: 100 μM ATP, 100 μM PIMtide. As to the method: as §1

Assay [4] concerns BAD S112 phosphorylation in H1299 cells overexpressing PIM-1 (H1299Pim1). Briefly: BAD S112 phosphorylation inhibition assay (in Cell ELISA). In kind it is cell-based. Particulars: Homo sapiens, NCI-H1299, 4 hours, medium without FBS, read-out: BAD PH 1299PIM 1 ELIWO. The procedure: The efficacy of the compounds of the invention on the inhibition of BAD phosphorylation was measured by an in Cell ELISA.
Materials: H1299 cells overexpressing PIM-1 (H1299Pim1). DMSO Plates: 96-well-Polystyrene, Untreated, Round-Bottom plates from Costar (Cat #3797). Cell Plates: 96-Flat bottom biocoated with Poly-D-Lysin plates with lid from Becton Dickinson (Cat #354651). Cell Culture Medium: DMEM high glucose, 10% Fetal Bovine Serum, 2 mM L-Glutamine, P/S. Antibodies: phospho BAD S112 antibody from Cell Signaling (cat. #9291S), anti-rabbit conjugated with peroxidase from Amersham (cat. #3619). Reagent: SuperSignal ELISA femto from Pierce (cat. #1001110).
Procedure: Cells were seeded in 15000 cells per 200 μl per well into 96-well plates and incubated for 16 h at 37° C., 5% CO2. On day two, nine serial 1:2 compound dilutions were made in DMSO in a 96-well plate. The compounds were added to duplicate wells in 96-well cell plates using a FX BECKMAN robot (Beckman Coulter) and were incubated at 37° C. under CO2 atmosphere in medium without fetal bovine serum (FBS). After 4 hours, relative levels of BAD S112 phosphorylation were measured in Cell ELISA using SuperSignal ELISA Femto substrate (Pierce) and read on VICTOR (Perkin Elmer). EC50 values were calculated using ActivityBase from IDBS.

The test system of assay [5] is DU145. Briefly: Combination antiproliferation with Example 1. Type of assay: cell-based. Conditions: agent in combination with Example 1, DU145, Prostate Cancer. Further details: key to Synergy: ++++ indicates a very strong synergistic effect; +++ a strong synergistic effect; ++ a synergistic effect. As to the method: (§2) The cells were harvested just before reaching confluency, counted with a haemocytometer and diluted with media. Cells were then seeded in 96-well microtiter plates at a density of 4,000 cells/well. […] Compounds were weighed out and diluted with DMSO to a final concentration of 10 mM. From here a “mother plate” with serial dilutions was prepared at 200× the final concentration in the culture. The final concentration of DMSO in the tissue culture media should not exceed 0.5%. The appropriate volume of the compound solution (2 μl) was added automatically (Beckman FX 96 tip) to 0.2 ml media to make it up to the final concentration for each drug. Each concentration was assayed in duplicate. Cells were exposed to the compounds for 72 h and then processed for CellTiter-Glo® Luminescent Cell Viability Assay (Promega) read out according to manufacturer's Instruction and read on EnVision (Perkin Elmer). GI50 values were calculated using ActivityBase from IDBS. […] A combination index score was calculated by the Chou and Talalay method (CalcuSyn software, Biosoft). The combination partner compounds were as follows: • the PI3K inhibitor pictisilib (GDC-0941); • the MEK inhibitor merdametinib (PD-0325901); and the EGFR and ErbB2 inhibitor lapatinib

Assay [6] concerns A549. Briefly: Combination antiproliferation with Example 1. Type of assay: cell-based. Set-up: key to Synergy: ++++ indicates a very strong synergistic effect; +++ a strong synergistic effect; ++ a synergistic effect. Conditions: agent in combination with Example 1, A549, Lung Cancer. As to the method:
(§3) The cells were harvested just before reaching confluency, counted with a haemocytometer and diluted with media. Cells were then seeded in 96-well microtiter plates at a density of 4,000 cells/well. Cells were incubated for 24 hours before adding the compounds.
(§4) Compounds were weighed out and diluted with DMSO to a final concentration of 10 mM. From here a “mother plate” with serial dilutions was prepared at 200× the final concentration in the culture. The final concentration of DMSO in the tissue culture media should not exceed 0.5%. The appropriate volume of the compound solution (2 μl) was added automatically (Beckman FX 96 tip) to 0.2 ml media to make it up to the final concentration for each drug.
(§5) Each concentration was assayed in duplicate. Cells were exposed to the compounds for 72 h and then processed for CellTiter-Glo® Luminescent Cell Viability Assay (Promega) read out according to manufacturer's Instruction and read on EnVision (Perkin Elmer). GI50 values were calculated using ActivityBase from IDBS.
(§6) A combination index score was calculated by the Chou and Talalay method (CalcuSyn software, Biosoft).

Assay [7] has as its system HCT116. Briefly: Combination antiproliferation with Example 1. Type of assay: cell-based. Set-up: key to Synergy: ++++ indicates a very strong synergistic effect; +++ a strong synergistic effect; ++ a synergistic effect. Particulars: agent in combination with Example 1, HCT116, Colon Cancer. The procedure:
as §3, §4, §5, §6

Assay [8] concerns Jeko-1. Briefly: Combination antiproliferation with Example 1. Type of assay: cell-based. Further details: key to Synergy: ++++ indicates a very strong synergistic effect; +++ a strong synergistic effect; ++ a synergistic effect. Particulars: agent in combination with Example 1, Jeko-1, Mantle Cell Lymphoma. As to the method: as §3, §4, §5, §6
In assay [9] the test system is T47D. Briefly: Combination antiproliferation with Example 1. In kind it is cell-based. Set-up: key to Synergy: ++++ indicates a very strong synergistic effect; +++ a strong synergistic effect; ++ a synergistic effect. Particulars: agent in combination with Example 1, T47D, Breast Cancer. As to the method: as §3, §4, §5, §6
Assay [10] relates to HT29. Briefly: Combination antiproliferation with Example 1. Type of assay: cell-based. Further details: key to Synergy: ++++ indicates a very strong synergistic effect; +++ a strong synergistic effect; ++ a synergistic effect. Conditions: agent in combination with Example 1, HT29, Colon Cancer. As to the method:
as §2

Assay [11] has as its system SKMEL19. Briefly: Combination antiproliferation with Example 1. Type of assay: cell-based. Further details: key to Synergy: ++++ indicates a very strong synergistic effect; +++ a strong synergistic effect; ++ a synergistic effect. Particulars: agent in combination with Example 1, SKMEL19, Melanoma. As to the method:
as §2

Assay [12] deals with U87MG. Briefly: Combination antiproliferation with Example 1. Further details: key to Synergy: ++++ indicates a very strong synergistic effect; +++ a strong synergistic effect; ++ a synergistic effect. In kind it is cell-based. Particulars: agent in combination with Example 1, U87MG, Glioblastoma. The procedure:
as §3, §4, §5, §6

Assay [13] has as its system BT-474. Briefly: In vitro potency against breast cancer cell lines (CellTiter Glo). In kind it is cell-based. Particulars: Homo sapiens, BT-474, 72 h; read-out: absolute IC50 BT-474. The procedure: (§7) To prepare the complete medium FBS and appropriate additives were added according to the information sheet provided by the vendor and mixed gently. The cell name and complete medium and passage number marked on the flask were checked, and the culture medium removed and discarded using a vacuum pump. […] 3.0 ml of Trypsin-EDTA solution was added to the flask and the cells observed under an inverted microscope until cell layer is dispersed. 8.0 ml of complete growth medium was added and the cells aspirated by gently pipetting. The cell suspension was transferred to a centrifuge tube and centrifuged at 800-1000 rpm for 3-5 minutes. The supernatant was discarded using a vacuum pump, and an appropriate volume of complete medium added. The cell pellet was suspended by gently pipetting, and the cell numbers counted with Vi-cell XR and the cells adjusted to appropriate density. 100 μL of cell suspension to 96-well opaque-walled clear bottom plates was added according to the planned plate layout and the plates placed in the CO2 incubator overnight.
(§8) c. […] Meanwhile the day 0 plate was measured by Cell TiterGlo as listed below.
(§9) d. Cells were incubated with the compounds for 72 h at 5% CO2, 37° C.
(§10) The CellTiter-Glo buffer was thawed and equilibrated to room temperature prior to use. The lyophilized CellTiter-Glo substrate was equilibrated to room temperature prior to use. The appropriate volume of CellTiter-Glo buffer was transferred into the amber bottle containing CellTiter-Glo substrate to reconstitute the lyophilized enzyme/substrate mixture, thereby forming the CellTiter-Glo reagent. Mixing was carried out by gently vortexing, swirling or by inverting the contents to obtain a homogeneous solution, the CellTiter-Glo substrate going into solution easily in less than one minute.
(§11) The plate and its contents were equilibrated to room temperature for approximately 30 minutes, after which 100 μL of CellTiter-Glo reagent was added to the assay plate by Multidrop Combi instrument and the contents mixed for 10 minutes on an orbital shaker to induce cell lysis. The plate was allowed to incubate at room temperature for 10 minutes to stabilize luminescent signal and the clear bottom pasted with white back seal and the luminescence recorded with Enspire with the settings: Luminescence, measurement time 0.1 ms.

For assay [14], the system named is HCC1143. Described as above. In kind it is cell-based. Conditions: Homo sapiens, HCC1143, 72 h; read-out: absolute IC50 HCC1143. The procedure:
as §7, §8, §9, §10, §11

The subject of assay [15] is T-47D. The assay is described as above. In kind it is cell-based. Conditions: Homo sapiens, T47D, 72 h; read-out: absolute IC50 T-47D. The procedure:
as §7, §8, §9, §10, §11

Assay [16] has as its system KG-1. Briefly: In vitro potency against leukemia cell lines (CellTiter Glo). Type of assay: cell-based. Particulars: Homo sapiens, 72 hours, read-out: absolute IC50 KG-1. As to the method: as §7, §8, §9, §11
(§12) In all cases, the incubation time was 72 hours and the cell lines were grown as a suspension. The seeding density was […] in a 96 well plate.
(In ATP-based viability assays light output follows the ATP content of the culture.)

For assay [17], the system named is OCI-M1. The assay is described as above. In kind it is cell-based. Particulars: 72 hours, read-out: absolute IC50 OCI-M1. The procedure:
as §7, §8, §9, §11, §12

Here are results for six compounds from US20250042918A1, “COMPOUNDS” (Fundación Del Sector Públlco Estatal Centro Nacional De …, priority 2021, published 2025).

T2 sequence (Q9P1W9 whole entry): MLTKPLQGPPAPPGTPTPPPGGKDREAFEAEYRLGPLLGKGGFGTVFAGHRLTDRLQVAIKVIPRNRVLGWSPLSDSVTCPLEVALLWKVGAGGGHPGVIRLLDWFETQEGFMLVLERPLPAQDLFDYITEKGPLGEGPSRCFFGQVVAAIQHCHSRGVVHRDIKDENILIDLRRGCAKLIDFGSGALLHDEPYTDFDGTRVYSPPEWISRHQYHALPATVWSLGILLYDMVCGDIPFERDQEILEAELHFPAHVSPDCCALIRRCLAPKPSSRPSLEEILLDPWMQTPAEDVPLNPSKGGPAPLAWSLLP
T1 sequence (P11309 whole entry): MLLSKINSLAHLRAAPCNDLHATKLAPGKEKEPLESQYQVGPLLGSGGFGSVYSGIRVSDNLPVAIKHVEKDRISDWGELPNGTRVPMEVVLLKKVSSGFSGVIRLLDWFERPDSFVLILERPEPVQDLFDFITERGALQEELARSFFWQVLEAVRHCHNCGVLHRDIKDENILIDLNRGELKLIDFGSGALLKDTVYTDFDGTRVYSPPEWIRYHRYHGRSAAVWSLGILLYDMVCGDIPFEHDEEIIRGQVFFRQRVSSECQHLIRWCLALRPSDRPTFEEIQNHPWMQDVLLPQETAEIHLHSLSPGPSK

By IC50 is commonly meant the concentration that gives 50% inhibition. In the case of `CN1CCOc2c1c(N[C@H]1CC[C@@](C)(O)CC1)nn1c(-c3ccc(F)c(C(F)(F)F)c3)nnc21` [Example 2, 4-[3-(4-Fluoro-3-trifluoromethyl-phenyl)-6-methyl-7,8-dihydro-6H-9-oxa-1,2,3a,4,6-pentaaza-cyclopenta[a]naphthalen-5-ylamino]-1-methyl-cyclohexanol], the results for the IC50 in assay [1], in [2] and in assay [3] were less than 1 nM, 1 to 5 nM and 1 to 5 nM, respectively. Also, the EC50 in assay [4] was 7.11 nM.
Consider `CS(=O)(=O)CCNCc1ccc(-c2ccc3ncnc(Nc4ccc(OCc5cccc(F)c5)c(Cl)c4)c3c2)o1` [Lapatinib, lapatinib], for which the “C.I. (combination index)” value was 0.52 in assay [5]; 0.47 in [6]; 0.51 in assay [7]; 0.70 in [8]; 0.27 in assay [9]. For the same compound, the Synergy result in assay [5] was “++”; in [6] it was “++”; in [7], “++”; in assay [8] it was “++”; in [9], “+++”.
Consider `O=C(NOC[C@H](O)CO)c1ccc(F)c(F)c1Nc1ccc(I)cc1F` [Merdametinib, merdametinib], for which the entries for the “C.I. (combination index)” value in assay [5], in assay [10] and in [11] were 0.55, 0.62 and 0.038, respectively. For the same compound, the Synergy entry in assay [5] was “++”; in assay [10], “++”; in assay [11], “++++”.
Regarding `CS(=O)(=O)N1CCN(Cc2cc3nc(-c4cccc5[nH]ncc45)nc(N4CCOCC4)c3s2)CC1` [Pictisilib, pictisilib], the “C.I. (combination index)” value is listed as 0.24 in [5], 0.54 in [11] and 0.46 in assay [12]. Further, the Synergy entry was “+++” in assay [5], “++” in assay [11] and “++” in assay [12].
On to `CC1(O)CCC(Nc2nn3c(-c4cccc(OC(F)(F)F)c4)nnc3c3c2CCCO3)CC1` (centres unmarked) [Example 3, 1-Methyl-4-[3-(3-trifluoromethoxy-phenyl)-7,8-dihydro-6H-9-oxa-1,2,3a,4-tetraaza-cyclopenta[a]naphthalen-5-ylamino]-cyclohexanol], for which the IC50 is less than 1 nM in assay [1], 5 to 10 nM in [2] and 1 to 5 nM in assay [3]. In assay [4], the EC50 is 4.15 nM.
As to `CN[C@@H]1C[C@H]2O[C@@](C)([C@@H]1OC)n1c3ccccc3c3c4c(c5c6ccccc6n2c5c31)C(=O)NC4` [Staurosporine], the IC50 in assay [13] amounted to 76.6 nM; in [14] it was 11 nM; in assay [15] it was 219 nM; in [16], 23.2 nM; in assay [17], 48.4 nM.
